The values below come from ChEMBL document CHEMBL4316584, “All that glitters is not gold: Panning cytotoxic natural products and derivatives with a fused tricyclic backbone by the estimation of their leadlikeness for cancer treatment” (Eur J Med Chem, 2019).

SMILES strings stand for the structures.

The first assay relates to HeLa. The assay can be described thus: Cytotoxicity against human HeLa cells after 48 hrs by MTT assay. It counts as functional, cell-based.
Settings: not given
In general terms: Formazan colour is commonly taken as a measure of viable cells.
For orientation: IC50 means the concentration that gives 50% inhibition. A higher IC50 goes with weaker potency in that assay. Regarding `CC(C)c1ccc2c(c1)CC[C@H]1[C@](C)(C(=O)NC(=S)N[C@@H](Cc3ccccc3)C(=O)Nc3ccc(Cl)cc3)CCC[C@]21C`, the IC50 amounted to 17.2 µM.
The same measure, in the same setting: the result for `Cc1ccc(NC(=O)[C@H](Cc2ccccc2)NC(=S)NC(=O)[C@]2(C)CCC[C@]3(C)c4ccc(C(C)C)cc4CC[C@@H]23)cc1` reads 19.1 µM.
The same measure, in the same setting: the result for `COc1cc(-c2nc(/C=C/C(=O)c3ccc(O)cc3)cc3c2[nH]c2ccccc23)cc(OC)c1OC` reads 12.5 µM; that for `CC(C)c1ccc2c(c1)CC[C@H]1[C@](C)(C(=O)NC(=S)N[C@@H](Cc3ccccc3)C(=O)Nc3cccc4ccccc34)CCC[C@]21C`, 12.8 µM.
The same measure, in the same setting: the result for `CC(C)c1ccc2c(c1)CC[C@H]1[C@](C)(C(=O)NC(=S)N[C@@H](Cc3ccccc3)C(=O)Nc3ccccn3)CCC[C@]21C` reads 6.58 µM; that for `COc1cc(-c2nc(Cn3cc(CN4C(=O)c5ccc(C)cc5C4=O)nn3)cc3c2[nH]c2ccccc23)cc(OC)c1OC`, 15.6 µM; that for `COc1c(O)cc2oc3cc(O)c(C/C=C(/C)CO)c(O)c3c(=O)c2c1C/C=C(\C)CCCC(C)(C)O`, 16.7 µM.
`CC(=O)N1N=C(c2cccs2)CC1c1cc2c([nH]c3ccccc32)c(-c2ccc(F)c(F)c2)n1` (stereo unspecified) registered an IC50 of 8.7 µM. Compared with the last molecule, the IC50 is about 1.9-fold lower.
The molecule `CC(C)c1cc2c(cc1O)[C@@]1(C)CCCC(C)(C)[C@@H]1[C@@H](O)C2=O` yielded a half-inhibitory concentration (IC50) of 7.7 µM.
On the same count and under the same terms, the result for `CC(C)c1ccc2c(c1)CC[C@H]1[C@](C)(C(=O)NC(=S)N[C@@H](C)C(=O)Nc3ccccc3Cl)CCC[C@]21C` reads 19.7 µM; that for `COc1cc(NC(=O)[C@H](C)NC(=S)NC(=O)[C@]2(C)CCC[C@]3(C)c4ccc(C(C)C)cc4CC[C@@H]23)cc(OC)c1OC`, 18.1 µM; that for `CCOc1ccc(/C=C2\CCc3c([nH]c4ccc(C)cc34)C2=O)cc1OCC`, 0.8 µM.
`CC(C)c1ccc2c(c1)CC[C@H]1[C@](C)(C(=O)NC(=S)N[C@@H](C)C(=O)Nc3ccc(Br)cc3)CCC[C@]21C` had an IC50 of 19 µM.
On the same count and under the same terms, under `C=CCc1cc2oc3cc(OC)cc(O)c3c(=O)c2c(OC)c1O` stands 18.7 µM; under `CC(C)c1ccc2c(c1)CC[C@H]1[C@](C)(C(=O)NC(=S)N[C@@H](Cc3ccccc3)C(=O)Nc3ccc(Br)cc3)CCC[C@]21C`, 15.7 µM.
On the same count and under the same terms, the result for `CC(=O)N1N=C(c2ccco2)CC1c1cc2c([nH]c3ccccc32)c(-c2ccc(F)c(F)c2)n1` (stereo unspecified) reads 3.38 µM; that for `CC(=O)N1N=C(c2ccc[nH]2)CC1c1cc2c([nH]c3ccccc32)c(-c2ccc(C(F)(F)F)cc2)n1` (stereo unspecified), 6.24 µM; that for `CC(C)c1ccc2c(c1)CC[C@H]1[C@](C)(CO)CCC[C@]21C` [POMIFERIN A], 15.7 µM.
For the molecule `COc1cc(-c2nc(/C=C/C(=O)c3ccc(N)cc3)cc3c2[nH]c2ccccc23)ccc1F`, the half-maximal inhibitory concentration (IC50) amounted to 15.2 µM. This IC50 and that of the molecule before are within 1.5-fold of each other.
Same read-out and setting: the result for `COc1cc(-c2nc(/C=C/C(=O)c3cccs3)cc3c2[nH]c2ccccc23)cc(OC)c1OC` reads 6.91 µM.
On the same count and under the same terms, under `COc1c(O)cc2oc3cc(O)c(C/C=C(/C)CO)c(O)c3c(=O)c2c1CCC(C)(O)CCC=C(C)C` (stereo unspecified) stands 17.2 µM; under `CC(C)c1ccc2c(c1)CC[C@H]1[C@](C)(C(=O)NC(=S)N[C@@H](Cc3ccccc3)C(=O)Nc3ccccc3Cl)CCC[C@]21C`, 17 µM; under `COc1ccc(NC(=O)[C@H](Cc2ccccc2)NC(=S)NC(=O)[C@]2(C)CCC[C@]3(C)c4ccc(C(C)C)cc4CC[C@@H]23)cc1`, 15.6 µM.
Same read-out and setting: the result for `CC(C)c1ccc2c(c1)CC[C@H]1[C@](C)(C(=O)NC(=S)N[C@@H](C)C(=O)Nc3ccccn3)CCC[C@]21C` reads 14.3 µM; that for `CC(C)c1ccc2c(c1)CC[C@H]1[C@](C)(C(=O)NC(=S)N[C@@H](Cc3ccccc3)C(=O)Nc3ccccc3F)CCC[C@]21C`, 18.8 µM.
In turn, `Cc1cc(C)cc(NC(=O)[C@H](C)NC(=S)NC(=O)[C@]2(C)CCC[C@]3(C)c4ccc(C(C)C)cc4CC[C@@H]23)c1` displayed a half-maximal inhibitory concentration (IC50) of 18.6 µM.
`CC(=O)N1N=C(c2cccs2)CC1c1cc2c([nH]c3ccccc32)c(-c2ccc(C(F)(F)F)cc2)n1` (stereo unspecified): the IC50 is 19 µM.
The same measure, in the same setting: the result for `O=C(/C=C/c1cc2c([nH]c3ccccc32)c(-c2ccc(C(F)(F)F)cc2)n1)c1ccc[nH]1` reads 7.24 µM.
The same measure, in the same setting: the result for `COc1cc(-c2nc(C3CC(c4cccs4)=NN3C(C)=O)cc3c2[nH]c2ccccc23)cc(OC)c1OC` (stereo unspecified) reads 4.51 µM; that for `COc1ccc(-c2nc(/C=C/C(=O)c3ccc(N)cc3)cc3c2[nH]c2ccccc23)cc1OC`, 13.5 µM.
As to `Cc1cc(C)cc(NC(=O)[C@H](Cc2ccccc2)NC(=S)NC(=O)[C@]2(C)CCC[C@]3(C)c4ccc(C(C)C)cc4CC[C@@H]23)c1`, half-maximal inhibition (IC50) was put at 15.8 µM.
For the molecule `COc1cc(NC(=O)[C@H](Cc2ccccc2)NC(=S)NC(=O)[C@]2(C)CCC[C@]3(C)c4ccc(C(C)C)cc4CC[C@@H]23)cc(OC)c1OC`, the half-inhibitory concentration (IC50) stood at 17.5 µM.
In the case of `CCOc1ccc(/C=C2\CCc3c([nH]c4ccc(Cl)cc34)C2=O)cc1OCC`, the IC50 was determined as 2.73 µM.
Regarding `CC(C)C1=C(O)C(=O)C2=C(C=C[C@H]3C(C)(C)CCC[C@]23C)C1=O`, the IC50 amounted to 6.56 µM.
Still for that read-out and setting: under `O=C(/C=C/c1cc2c([nH]c3ccccc32)c(-c2ccc(C(F)(F)F)cc2)n1)c1cccs1` stands 9.54 µM; under `COc1cc2oc3cc(O)c(OC)c(CC=C(C)C)c3c(=O)c2c(O)c1CC=C(C)C`, 12.8 µM.
Regarding `Nc1ccc(C(=O)/C=C/c2cc3c([nH]c4ccccc43)c(-c3ccc(F)cc3)n2)cc1`, the IC50 was 18.5 µM.
Same read-out and setting: under `CC(C)c1cc(C(=O)O)c2c(c1O)O[C@H]1C(C)(C)CCC[C@]21C` stands 17.8 µM.
On to `CC(C)c1ccc2c(c1)CC[C@H]1[C@](C)(C(=O)NC(=S)N[C@@H](Cc3ccccc3)C(=O)Nc3ccccc3Br)CCC[C@]21C`, for which it took 12.7 µM to reach half-maximal inhibition (IC50).
Same read-out and setting: under `COc1cc2c(=O)c3c(O)c(C/C=C(\C)CCC=C(C)C)c(O)cc3oc2cc1O` [COWAXANTHONE] stands 15.8 µM; under `CCOc1ccc(/C=C2\CCc3c([nH]c4c(C)cccc34)C2=O)cc1OCC`, 1.5 µM.
As to `Cc1cccc2c1ccc1cc(C(C)CO)c(=O)oc12` (stereo unspecified), it took 0.86 µM to reach half-maximal inhibition (IC50).
In turn, `COc1cc(-c2nc(/C=C/C(=O)c3ccc(F)cc3)cc3c2[nH]c2ccccc23)cc(OC)c1OC` gave an IC50 of 13.4 µM.
As for `NCCCCNCCNCc1c2ccccc2c(CNCCNCCCCN)c2ccccc12`, the IC50 was 20 µM.
`Cc1cccc2c1ccc1cc(C(C)C)c(=O)oc12`: the IC50 was found to be 7.92 µM. This IC50 is about 2.5-fold lower than that of the molecule before.
`Cc1ccccc1NC(=O)[C@H](Cc1ccccc1)NC(=S)NC(=O)[C@]1(C)CCC[C@]2(C)c3ccc(C(C)C)cc3CC[C@@H]12` came in with a concentration for half-maximal inhibition (IC50) of 17.7 µM. Against the preceding molecule, the IC50 is about 2.2-fold higher.
The molecule `COc1c(O)cc2oc3cc(O)c(CC=C(C)C)c(O)c3c(=O)c2c1C/C=C(\C)CCC=C(C)C` [COWANIN] displayed a 50% inhibitory concentration (IC50) of 11.7 µM.

The test system of another assay is HCT-116. The assay can be described thus: Cytotoxicity against human HCT116 cells after 48 hrs by MTT assay. The conditions noted are these: HCT-116, 48 h. It is filed as functional, cell-based.
In turn, `CC(=O)O[C@@H]1[C@H](C)CC(O)=C2C(=O)c3c(ccc(-c4ccc(O)c5c4O[C@@]4(CO)C(=C(O)C[C@@H](C)[C@H]4OC(C)=O)C5=O)c3O)O[C@@]21CO` showed an IC50 of 7.12 µM.
Still for that read-out and setting: under `CCCCCCNC1=CC(=O)c2c(O)c3c(c(O)c2C1=O)C[C@](C)(O)[C@H](O)C3` stands 3.14 µM; under `C[C@]1(O)Cc2c(O)c3c(c(O)c2C[C@H]1O)C(=O)C=C(N1CCCCC1)C3=O`, 16.3 µM.
Consider `O=c1c2ccc(O)c(O)c2oc2c(O)c(O)ccc12`, for which 18.5 µM corresponded to half-maximal inhibition (IC50). The IC50 values of the last two molecules are within 1.5-fold of each other.
